Experimental data reported in ChEMBL document CHEMBL4020759, “Sulfoximines as ATR inhibitors: Analogs of VE-821” (2017).
Active and inactive are the calls of the source. No cut-off for these calls is given here.

Experiments:
[1] = biological target: Serine/threonine-protein kinase ATR (Homo sapiens) (UniProt Q13535); experiment: Inhibition of ATR in human U2OS cells assessed as reduction in hydroxyurea-induced Chk-1 phosphorylation at Ser345 residue by measuring ratio of GAPDH level to phosphorylated Chk-1 level at 3 uM preincubated for 1 hr followed by hydroxyurea challenge measured after 2 hrs by Western blot analysis; assay type: cell-based
[2] = biological target: Serine/threonine-protein kinase ATR (Homo sapiens) (UniProt Q13535); experiment: Inhibition of ATR in human U2OS cells assessed as reduction in hydroxyurea-induced Chk-1 phosphorylation at Ser345 residue by measuring ratio of GAPDH level to phosphorylated Chk-1 level at 10 uM preincubated for 1 hr followed by hydroxyurea challenge measured after 2 hrs by Western blot analysis; assay type: cell-based
[3] = biological target: Serine-protein kinase ATM (Homo sapiens) (UniProt Q13315); experiment: Inhibition of ATM in human U2OS cells assessed as reduction in etoposide-induced Chk-2 phosphorylation at Thr68 residue at 10 uM preincubated for 1 hr followed by etoposide challenge measured after 20 mins by Western blot analysis; assay type: cell-based
Serine-protein kinase ATM (Homo sapiens), sequence (Q13315 whole entry): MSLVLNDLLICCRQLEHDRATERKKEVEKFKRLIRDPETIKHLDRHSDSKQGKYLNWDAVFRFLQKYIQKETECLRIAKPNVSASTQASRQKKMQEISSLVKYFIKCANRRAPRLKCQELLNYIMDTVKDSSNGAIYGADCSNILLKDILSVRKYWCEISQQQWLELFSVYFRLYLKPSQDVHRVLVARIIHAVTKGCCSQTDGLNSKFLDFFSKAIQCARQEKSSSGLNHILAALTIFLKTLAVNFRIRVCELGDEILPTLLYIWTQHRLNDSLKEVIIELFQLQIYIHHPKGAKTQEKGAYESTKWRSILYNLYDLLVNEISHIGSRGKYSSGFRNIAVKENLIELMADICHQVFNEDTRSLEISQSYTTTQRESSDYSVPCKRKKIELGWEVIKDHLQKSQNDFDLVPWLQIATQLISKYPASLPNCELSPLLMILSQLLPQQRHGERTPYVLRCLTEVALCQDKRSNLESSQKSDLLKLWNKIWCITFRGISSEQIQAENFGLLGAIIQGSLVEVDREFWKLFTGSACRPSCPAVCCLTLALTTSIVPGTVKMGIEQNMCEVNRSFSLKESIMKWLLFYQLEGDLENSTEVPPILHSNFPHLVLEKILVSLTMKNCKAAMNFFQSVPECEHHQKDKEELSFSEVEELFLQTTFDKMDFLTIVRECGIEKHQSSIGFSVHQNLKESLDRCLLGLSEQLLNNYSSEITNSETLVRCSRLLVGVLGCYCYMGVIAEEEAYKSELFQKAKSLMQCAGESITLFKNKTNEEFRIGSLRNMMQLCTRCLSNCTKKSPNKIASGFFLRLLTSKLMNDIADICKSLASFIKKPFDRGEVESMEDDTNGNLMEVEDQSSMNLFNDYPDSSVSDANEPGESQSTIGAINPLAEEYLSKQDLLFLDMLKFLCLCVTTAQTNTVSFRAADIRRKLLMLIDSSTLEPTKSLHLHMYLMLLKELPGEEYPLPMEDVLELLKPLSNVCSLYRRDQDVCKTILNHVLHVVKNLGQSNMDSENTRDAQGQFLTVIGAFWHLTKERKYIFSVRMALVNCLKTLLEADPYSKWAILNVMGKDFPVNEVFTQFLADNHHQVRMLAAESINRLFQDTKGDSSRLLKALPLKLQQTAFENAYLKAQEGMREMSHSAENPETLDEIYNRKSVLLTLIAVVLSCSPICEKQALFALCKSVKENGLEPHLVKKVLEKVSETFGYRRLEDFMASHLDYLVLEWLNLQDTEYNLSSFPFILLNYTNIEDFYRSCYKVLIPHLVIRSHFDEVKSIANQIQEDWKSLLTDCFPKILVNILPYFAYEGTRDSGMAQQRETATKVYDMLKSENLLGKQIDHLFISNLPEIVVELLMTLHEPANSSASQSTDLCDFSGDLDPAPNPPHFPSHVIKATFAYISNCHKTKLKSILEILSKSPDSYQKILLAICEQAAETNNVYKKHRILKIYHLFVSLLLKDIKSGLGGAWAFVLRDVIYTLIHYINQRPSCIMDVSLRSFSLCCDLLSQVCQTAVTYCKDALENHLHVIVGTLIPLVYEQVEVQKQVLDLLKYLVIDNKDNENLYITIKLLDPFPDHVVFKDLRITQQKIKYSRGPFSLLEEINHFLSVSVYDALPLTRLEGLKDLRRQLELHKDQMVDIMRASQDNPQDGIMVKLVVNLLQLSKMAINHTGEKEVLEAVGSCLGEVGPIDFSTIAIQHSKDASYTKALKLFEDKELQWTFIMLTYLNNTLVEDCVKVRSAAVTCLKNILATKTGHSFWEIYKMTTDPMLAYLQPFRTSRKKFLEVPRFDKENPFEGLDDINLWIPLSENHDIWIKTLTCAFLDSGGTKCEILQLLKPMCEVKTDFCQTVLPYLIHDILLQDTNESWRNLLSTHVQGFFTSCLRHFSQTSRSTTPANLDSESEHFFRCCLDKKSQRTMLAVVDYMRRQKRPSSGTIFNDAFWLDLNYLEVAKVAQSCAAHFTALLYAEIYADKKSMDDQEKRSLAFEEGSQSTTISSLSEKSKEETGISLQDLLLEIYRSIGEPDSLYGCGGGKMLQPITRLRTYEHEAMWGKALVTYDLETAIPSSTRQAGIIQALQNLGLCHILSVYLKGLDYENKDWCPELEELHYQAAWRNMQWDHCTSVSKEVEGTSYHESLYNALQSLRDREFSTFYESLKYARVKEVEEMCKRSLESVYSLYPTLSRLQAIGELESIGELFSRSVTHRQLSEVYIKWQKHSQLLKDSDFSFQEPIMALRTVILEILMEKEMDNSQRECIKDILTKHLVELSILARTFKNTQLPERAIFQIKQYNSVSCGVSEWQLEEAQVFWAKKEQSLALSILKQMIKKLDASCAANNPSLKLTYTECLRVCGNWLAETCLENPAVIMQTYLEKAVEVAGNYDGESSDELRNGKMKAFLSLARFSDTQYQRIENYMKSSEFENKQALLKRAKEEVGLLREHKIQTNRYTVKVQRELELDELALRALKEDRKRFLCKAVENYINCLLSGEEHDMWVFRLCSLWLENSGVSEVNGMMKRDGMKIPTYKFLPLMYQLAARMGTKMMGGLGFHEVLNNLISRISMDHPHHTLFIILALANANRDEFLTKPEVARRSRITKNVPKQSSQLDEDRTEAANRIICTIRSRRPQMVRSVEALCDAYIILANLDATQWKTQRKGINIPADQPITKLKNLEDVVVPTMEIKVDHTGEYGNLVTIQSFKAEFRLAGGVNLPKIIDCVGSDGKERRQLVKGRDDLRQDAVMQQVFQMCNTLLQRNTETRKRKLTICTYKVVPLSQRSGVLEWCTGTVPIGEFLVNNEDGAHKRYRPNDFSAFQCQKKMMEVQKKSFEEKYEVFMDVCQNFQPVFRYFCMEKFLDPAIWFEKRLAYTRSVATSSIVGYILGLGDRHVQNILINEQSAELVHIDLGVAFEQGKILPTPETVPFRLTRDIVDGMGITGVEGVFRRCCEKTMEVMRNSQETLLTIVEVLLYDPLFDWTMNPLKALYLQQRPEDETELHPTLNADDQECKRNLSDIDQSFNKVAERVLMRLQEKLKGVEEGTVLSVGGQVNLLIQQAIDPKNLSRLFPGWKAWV

[4] = biological target: Serine-protein kinase ATM (Homo sapiens) (UniProt Q13315); experiment: Inhibition of ATM in human U2OS cells assessed as reduction in hydroxyurea-induced H2AX phosphorylation at Ser139 residue at 3 to 10 uM preincubated for 1 hr followed by hydroxyurea challenge measured after 2 hrs by Western blot analysis; assay type: cell-based
[5] = biological target: Serine/threonine-protein kinase ATR (Homo sapiens) (UniProt Q13535); experiment: Inhibition of ATR in human U2OS cells assessed as reduction in etoposide-induced Chk-1 phosphorylation at Ser345 residue at 10 uM preincubated for 1 hr followed by etoposide challenge measured after 20 mins by Western blot analysis; assay type: cell-based
Ramos = experiment: Induction of apoptosis in human Ramos cells assessed as increase PARP-1 cleavage at 10 uM after 48 hrs by Western blot analysis; assay type: functional, cell-based
[6] = biological target: Serine/threonine-protein kinase ATR (Homo sapiens) (UniProt Q13535); experiment: Inhibition of ATR in human Ramos cells assessed as reduction in […] at 10 uM after 48 hrs by Western blot analysis; assay type: cell-based
[7] = biological target: Serine/threonine-protein kinase ATR (Homo sapiens) (UniProt Q13535); experiment: Inhibition of ATR in human U2OS cells assessed as reduction in hydroxyurea-induced H2AX phosphorylation at Ser139 residue at 3 to 10 uM preincubated for 1 hr followed by hydroxyurea challenge measured after 2 hrs by Western blot analysis; assay type: cell-based
[8] = biological target: Serine/threonine-protein kinase ATR (Homo sapiens) (UniProt Q13535); experiment: Inhibition of ATR in human U2OS cells assessed as reduction in hydroxyurea-induced Chk-1 phosphorylation at Ser345 residue preincubated for 1 hr followed by hydroxyurea challenge measured after 2 hrs by Western blot analysis; assay type: cell-based
[9] = biological target: Serine/threonine-protein kinase ATR (Homo sapiens) (UniProt Q13535); experiment: Inhibition of ATR in human U2OS cells assessed as reduction in hydroxyurea-induced Chk-1 phosphorylation at Ser345 residue at 10 uM preincubated for 1 hr followed by hydroxyurea challenge measured after 1 hr by Western blot analysis; assay type: cell-based
[10] = biological target: Serine-protein kinase ATM (Homo sapiens) (UniProt Q13315); experiment: Inhibition of ATM in human U2OS cells assessed as reduction in hydroxyurea-induced Chk-2 phosphorylation at Thr68 residue at 10 uM preincubated for 1 hr followed by hydroxyurea challenge measured after 1 hr by Western blot analysis; assay type: cell-based

SMILES: CS(=O)(=O)c1ccc(-c2cnc(N)c(C(=O)Nc3ccccc3)n2)cc1
- Ratio [1]: 13
- Ratio [2]: 16.3
- inhibition [3]: inactive
- inhibition [4]: inactive
- inhibition [5]: Active
- Activity (Ramos): Active
- inhibition [6]: Active

SMILES: CN=S(C)(=O)c1ccc(-c2cnc(N)c(C(=O)Nc3ccccc3)n2)cc1 (centres undefined)
- inhibition [7]: Dose-dependent effect
- inhibition [8]: Dose-dependent effect
- Ratio [1]: 46.1
- Ratio [2]: 36.4
- inhibition [3]: inactive
- inhibition [4]: inactive
- inhibition [5]: Active
- inhibition [9]: Active
- Activity (Ramos): Active
- inhibition [10]: inactive
- inhibition [6]: Active

SMILES: CS(=N)(=O)c1ccc(-c2cnc(N)c(C(=O)Nc3ccccc3)n2)cc1 (centres undefined)
- inhibition [7]: Dose-dependent effect
- inhibition [8]: Dose-dependent effect
- Ratio [1]: 28.3
- Ratio [2]: 21.1
- inhibition [3]: inactive
- inhibition [4]: inactive
- inhibition [5]: Active
- inhibition [9]: Active
- Activity (Ramos): Active
- inhibition [10]: inactive
- inhibition [6]: Active
